Assay results reported in patent US11466023B2, “Combination of a Mcl-1 inhibitor and a standard of care treatment for hematologic cancers, uses and pharmaceutical compositions thereof” (LES LABORATOIRES SERVIER, priority 2017, dated 2022).
Like-named read-outs stand apart in the source and are kept apart here.

Key:
EOL-1 AML cell line = experiment: Single agent cell viability (CellTiterGlo); type: cell-based; conditions: Homo sapiens, EOL1, 72 h; EOL-1, single agent, 3 days incubation, CellTiterGlo; read-out: IC50
Procedure: (§1) Cell lines were cultured at 37° C. in a humidified atmosphere containing 5% CO2 and expanded in T-150 flasks. […] In order to analyse the activity of the compounds as single agents, cells were seeded and treated with nine 2-fold serial dilutions of each compound dispensed individually directly into the cell assay plates. […] All the experiments were performed in triplicates. Luminescence was quantified on a multipurpose plate reader. Single agent IC50s were calculated using standard four-parametric curve fitting.

GDM-1 AML cell line = experiment: Single agent cell viability (CellTiterGlo); type: cell-based; conditions: Homo sapiens, 72 h; GDM-1, single agent, 3 days incubation, CellTiterGlo; read-out: IC50
Procedure: as §1

HL-60 AML cell line = experiment: Single agent cell viability (CellTiterGlo); type: cell-based; conditions: Homo sapiens, 72 h; HL-60, single agent, 3 days incubation, CellTiterGlo; read-out: IC50
Procedure: as §1

KG1 AML cell line = experiment: Single agent cell viability (CellTiterGlo); type: cell-based; conditions: 72 h; KG1, single agent, 3 days incubation, CellTiterGlo; read-out: IC50
Procedure: as §1

KG1a AML cell line = experiment: Single agent cell viability (CellTiterGlo); type: cell-based; conditions: Homo sapiens, KG-1a, 72 h; KG1a, single agent, 3 days incubation, CellTiterGlo; read-out: IC50
Procedure: as §1

Kasumi-1 AML cell line = experiment: Single agent cell viability (CellTiterGlo); type: cell-based; conditions: Homo sapiens, 72 h; Kasumi-1, single agent, 3 days incubation, CellTiterGlo; read-out: IC50
Procedure: as §1

ML-2 AML cell line = experiment: Single agent cell viability (CellTiterGlo); type: cell-based; conditions: 72 h; ML-2, single agent, 3 days incubation, CellTiterGlo; read-out: IC50
Procedure: as §1

MOLM-13 AML cell line = experiment: Single agent cell viability (CellTiterGlo); type: cell-based; conditions: Homo sapiens, 72 h; MOLM-13, single agent, 3 days incubation, CellTiterGlo; read-out: IC50
Procedure: as §1

MV4; 11 AML cell line = experiment: Single agent cell viability (CellTiterGlo); type: cell-based; conditions: Homo sapiens, 72 h; MV4; 11, single agent, 3 days incubation, CellTiterGlo; read-out: IC50
Procedure: as §1

Nomo-1 AML cell line = experiment: Single agent cell viability (CellTiterGlo); type: cell-based; conditions: Homo sapiens, 72 h; Nomo-1, single agent, 3 days incubation, CellTiterGlo; read-out: IC50
Procedure: as §1

OCI-AML3 AML cell line = experiment: Single agent cell viability (CellTiterGlo); type: cell-based; conditions: Homo sapiens, OCI-AML-3, 72 h; OCI-AML3, single agent, 3 days incubation, CellTiterGlo; read-out: IC50
Procedure: as §1

PL-21 AML cell line = experiment: Single agent cell viability (CellTiterGlo); type: cell-based; conditions: 72 h; PL-21, single agent, 3 days incubation, CellTiterGlo; read-out: IC50
Procedure: as §1

THP-1 AML cell line = experiment: Single agent cell viability (CellTiterGlo); type: cell-based; conditions: Homo sapiens, 72 h; THP-1, single agent, 3 days incubation, CellTiterGlo; read-out: IC50
Procedure: as §1

[1] = system: mononuclear cells from ALL patient samples; experiment: Cell viability assay (sytox blue flow cytometry) in primary ALL samples; type: cell-based; conditions: Homo sapiens, 48 h, combination at 1:1 ratio, read-out: 50% lethal concentration (LC50)
Procedure: Bone marrow or peripheral blood samples from patients with ALL were collected after informed consent in accordance with guidelines approved by The Alfred Hospital Human research ethics committee. Mononuclear cells were isolated by Ficoll-Paque (GE Healthcare, Australia) density-gradient centrifugation, followed by red cell depletion in ammonium chloride (NH4Cl) lysis buffer at 37° C. for 10 minutes. Cells were then re-suspended in phosphate-buffered saline containing 2% Fetal Bovine serum (Sigma, Australia). Mononuclear cells were then suspended in RPMI-1640 (GIBCO, Australia) medium containing penicillin and streptomycin (GIBCO) and heat inactivated fetal bovine serum 15% (Sigma).
Freshly purified mononuclear cells from ALL patient samples were adjusted to a concentration of 2.5×10^5/ml and 100 μL of cells aliquoted per well into 96 well plates (Sigma). Cells were then treated with indicated drugs over a […] concentration range from 1 nM to 10 μM for 48 hours. For combinations assays, drugs were added at a 1:1 ratio from 1 nM to 10 μM and incubated at 37° C. 5% CO2. Cells were then stained with sytox blue nucleic acid stain (Invitrogen, Australia) and fluorescence measured by flow cytometric analysis using the LSR-II Fortessa (Becton Dickinson, Australia). FACSDiva software was used for data collection, and FlowJo software for analysis. Blast cells were gated using forward and side scatter properties. Viable cells excluding sytox blue were determined at 6 concentrations for each drug and the 50% lethal concentration (LC50, in μM) determined.

primary AML samples = primary AML samples (leukemic progenitor cells), 10 nM
[2] = system: normal human CD34+ progenitor cells; conditions: 10 nM

`Nc1ccn([C@@H]2O[C@H](CO)[C@@H](O)[C@@H]2O)c(=O)n1` [Cytarabine, cytarabine] was tested, and the IC50 (EOL-1 AML cell line) was 90 nM, the IC50 (GDM-1 AML cell line) was 30 nM and the IC50 (HL-60 AML cell line) was 740 nM. For the same compound, the IC50 (KG1 AML cell line) was 170 nM, the IC50 (KG1a AML cell line) was 240 nM and the IC50 (Kasumi-1 AML cell line) was 1020 nM. For the same compound, the IC50 (ML-2 AML cell line) was 30 nM, the IC50 (MOLM-13 AML cell line) was 190 nM and the IC50 (MV4; 11 AML cell line) was 140 nM. For the same compound, the IC50 (Nomo-1 AML cell line) was 990 nM, the IC50 (OCI-AML3 AML cell line) was > 2000 nM and the IC50 (PL-21 AML cell line) was 100 nM. For the same compound, the IC50 (THP-1 AML cell line) was > 2000 nM, the CC50 ([1]; ALL patient sample 01-046-2018, 48 hours) was > 100000 nM and the CC50 ([1]; ALL patient sample AH6031524, 48 hours) was 51600 nM. For the same compound, the CC50 ([1]; ALL patient sample AH6184311, 48 hours) was 88000 nM, the CC50 ([1]; ALL patient sample AH6196680, 48 hours) was > 100000 nM and the CC50 ([1]; ALL patient sample AH6198549, 48 hours) was 10600 nM. The CC50 ([1]; ALL patient sample AH6258921, 48 hours) was > 100000 nM, the CC50 ([1]; ALL patient sample AH7008157, 48 hours) was > 100000 nM and the CC50 ([1]; ALL patient sample AH7024700, 48 hours) was 35900 nM. The CC50 ([1]; ALL patient sample AH7104727, 48 hours) was > 100000 nM, the CC50 ([1]; ALL patient sample TB 10-05-02, 48 hours) was > 100000 nM and the CC50 ([1]; ALL patient sample TB 11-08-06, 48 hours) was > 100000 nM. The CC50 ([1]; ALL patient sample TB 15-06-05, 48 hours) was > 100000 nM, the CC50 ([1]; ALL patient sample TB 17-06-18, 48 hours) was > 100000 nM and the CC50 ([1]; ALL patient sample TB120803, 48 hours) was > 100000 nM. The CC50 ([1]; ALL patient sample TB151005, 48 hours) was > 100000 nM, the clonogenic growth (primary AML samples) was “toxic” and the clonogenic growth [2] was “toxic”.
